Like-named read-outs stand apart in the source and are kept apart here.
Legend:
[1] = test system: IL-1β production in rat primary astrocytes; experiment: LPS-induced IL-1β production (ELISA) in rat primary astrocytes; type: cell-based
Procedure: (§1) Determination of TNF-α and IL-1β in culture supernatants Cells were stimulated with LPS in serum-free media for 24 h in the presence or absence of forskolin or rolipram, and concentrations of TNF-α and IL-1β were measured in culture supernatants by using high-sensitivity enzyme-linked immunosorbent assay (R&D Systems, USA) according to the manufacturer's instructions.

[2] = test system: TNF-α production in rat resident macrophages; experiment: LPS-/IFN-γ-induced TNF-α production (ELISA) in rat macrophages; type: cell-based
iNOS gene = iNOS gene transcription (nuclear run-on assay) in rat primary astrocytes; type: cell-based
Procedure: […]. In brief, the filters were prehybridized in 1 ml of hybridization buffer (50% formamide, 5×SSC, 1% SDS, 15% dextran sulfate, 1×Denhardt's solution, and 50 μg/ml heparin). After 24 h of prehybridization in the above buffer, hybridization was carried out with the labeled RNAs (1.3×10^5 cpm) at 42° C. for 60 h to 3 μg of the immobilized plasmid pGEM-T as a control, or to plasmids containing inserts of rat glyceraldehyde-3-phosphate dehydrogenase, rat actin, and human iNOS cDNAs. The filters were washed twice in 2×SSC, 0.1% SDS for 15 min at […], and twice in 0.5×SSC, 0.1% SDS for 15 min. Then the filters were treated with RNase buffer (300 mM NaCl, 10 mM TrisHCI, pH 7.4, 40 mM EDTA, 10 μg/ml RNase A, and 350 U/ml RNase T1) at 37° C. for 30 min, in the same buffer without RNases for another 30 min, and were then autoradiographed.

[3] = test system: TNF-α production in rat primary microglia; experiment: LPS-induced TNF-α production (ELISA) in rat primary microglia; type: cell-based
Procedure: as §1

NF-kβ = type: cell-based, rat
Procedure: Preparation of Nuclear Extracts and Electrophoretic Mobility shift assay Nuclear extracts from stimulated or unstimulated astrocytes (1×10^7 cells) were prepared using the method of Dignam et al. (1983) with slight modification. Cells were harvested, washed twice with ice-cold phosphate-buffered saline and lysed in 400 μl of buffer A (10 mM HEPES, pH 7.9, 10 mM KCl, 2 mM MgCl2, 0.5 mM DTT, 1 mM PMSF, 5 μg/ml aprotinin, 5 μg/ml pepstatin A, and 5 μg/ml leupeptin (Sigma, St. Louis, Mo.) containing 0.1% Nondet P-40 for 15 min on ice, vortexed vigorously for 15 s, and centrifuged at 14,000 rpm for 30 s. The pelleted nuclei were resuspended in 40 μl of buffer B (20 mM HEPES, pH 7.9, 25% (v/v) glycerol, 0.42 M NaCl, 1.5 mM MgCl2, 0.2 mM EDTA, 0.5 mM DTT, 1 mM PMSF, 5 μg/ml aprotinin, 5 μg/ml pepstatin A, and 5 μg/ml leupeptin). After 30 min on ice, lysates were centrifuged at 14,000 rpm for 10 min. Supernatants containing the nuclear proteins were diluted with 20 μl of modified buffer C (20 mM HEPES, pH 7.9, 20% (v/v) glycerol, 0.05 M KCl, 0.2 mM EDTA, 0.5 mM DTT, and 0.5 mM PMSF) and stored at −70° C. until use. Nuclear extracts were used for the electrophoretic mobility shift assay using the NF-kβ DNA binding protein detection system kit (GIBCO/BRL), according to the manufacturer's protocol.
Preparation of nuclear extracts and electrophoretic mobility shift assay Nuclear extracts from stimulated or unstimulated astrocytes (1×10^7 cells) were prepared as described (Dignam et al., 1983) with slight modification. Cells were harvested, washed twice with ice-cold phosphate-buffered saline and lysed in 400 μl of buffer A (10 mM HEPES, pH 7.9, 10 mM KCl, 2 mM MgCl2, 0.5 mM DTT, 1 mM PMSF, 5 μg/ml aprotinin, 5 μg/ml pepstatin A, and 5 μg/ml leupeptin) containing 0.1% Nonidet P40 for 15 min on ice, vortexed vigorously for 15 s, and centrifuged at 14,000 rpm for 30 s. […]

SMILES	Production of IL-1β ([1]; Astrocytes, 10 μM lovastatin or 5 mM NaPA 8 h, then LPS 1.0 μg/ml, 24 h) [ng/24 h/mg protein]	Production of TNF-α ([2]; Macrophages, 10 μM lovastatin or 5 mM NaPA 8 h, then LPS 1.0 μg/ml, 24 h) [ng/24 h/mg protein]	LPS-induced nuclear transcription of the iNOS gene (iNOS gene; 10 μM lovastatin, 5 mM NaPA or 2 μM lovastatin and 2 mM NaPA 8 h, LPS 1.0 μg/ml 4 h)	Production of TNF-α ([3]; Microglia, 10 μM lovastatin or 5 mM NaPA 8 h, then LPS 1.0 μg/ml, 24 h) [ng/24 h/mg protein]	LPS-induced activation of NF-kβ (NF-kβ; LPS 1.0 μg/ml, 1 h)	Production of IL-1β [1] [ng/24 h/mg protein]	Production of TNF-α [2] [ng/24 h/mg protein]	LPS-induced nuclear transcription of the iNOS gene (iNOS gene)	Production of TNF-α [3] [ng/24 h/mg protein]	LPS-induced activation of NF-kβ (NF-kβ)
CC[C@H](C)C(=O)O[C@H]1C[C@@H](C)C=C2C=C[C@H](C)[C@H](CC[C@@H]3C[C@@H](O)CC(=O)O3)[C@H]21 [Lovastatin]	0.8 ± 0.1	1.2 ± 0.1	inhibited the relative rate of LPS-induced nuclear transcription of the iNOS gene	0.9 ± 0.1	markedly inhibited for the LPS-induced activation of NF-kβ	–	–	–	–	–
O=C([O-])Cc1ccccc1.[Na+] [NaPA, sodium salt of phenylacetic acid]	–	–	–	–	–	1.1 ± 0.2	1.7 ± 0.2	inhibited the relative rate of LPS-induced nuclear transcription of the iNOS gene	1.3 ± 0.2	markedly inhibited for the LPS-induced activation of NF-kβ
